Data published in publication PMC7932521, “2-aminobenzimidazoles for leishmaniasis: From initial hit discovery to in vivo profiling” (PLoS Neglected Tropical Diseases, 2021).
Read-outs that look alike come from different tables or passages of the source.

How the values were obtained:
[1] = system: Leishmania infantum MHOM/MA(BE)/67/ITMAP263 amastigotes; test: L. infantum intracellular amastigote assay in PMM; type: cell-based; conditions: for SI: selectivity index (CC50 / IC50): CC50 / L. infantum IC50; for IC50: Leishmania infantum, read-out: L. infantum IC50
Method: (§1) Leishmania infantum MHOM/MA(BE)/67/ITMAP263 amastigotes were collected from the spleen of infected donor Golden hamsters. Primary peritoneal mouse macrophages (PMM) were used as host cells for in vitro assays. PMM were collected from Swiss mice after 2 days of peritoneal stimulation with a 2% suspension of potato starch and maintained in RPMI-1640 medium supplemented with 200 mM L-glutamine, antibiotics and 5% FCS at 37°C and 5% CO2. Promastigotes of L. infantum chagasi (luciferase) (MHOM/BR/2005/NLC) obtained as described in Reimão et al.,[27] were grown in M199 medium supplemented with 10% FCS, 0.25% hemin, 32 μg/ml hygromycin and 2% sterile human urine at 25°C and 5% CO2.
(§2) Stock solutions of the compounds at 20 mM were prepared in 100% DMSO. Next, the compounds were serially pre-diluted in DMSO followed by a further dilution in demineralized water to assure a final in-test DMSO concentration below 1%. The compounds were tested at 4-fold dilutions starting at 64 μM.
For the antileishmania in vitro assays, 3×10^4 PMM/well were seeded in 96-well plates. After 24h, 5×10^5 amastigotes/well were added and incubated for 2h at 37°C. Next, the compounds in 4-fold serial dilutions were added and the plates were further incubated for 5 days (37°C, 5% CO2). Parasite burdens were assessed using an inverted microscope after Giemsa staining. The results were expressed as percent reduction in parasite burdens compared to negative control wells (100% growth) and IC50 values were determined. Values represent the geometric mean of at least two independent experiments. Miltefosine was used as the positive control in all plates.

[2] = system: PMM (Primary Mouse Macrophages); test: Cytotoxicity on primary peritoneal mouse macrophages; type: cell-based; conditions: Mus musculus, Macrophage, read-out: PMM IC50
Method: as §1, §2

[3] = MRC-5 cytotoxicity; type: cell-based; conditions: human, MRC-5 cells; S1 Data
[4] = Experimental distribution coefficient (eLogD); type: physicochemical; conditions: pH 7.4
Method: To determine the lipophilicity of the compounds, a methodology based on the retention time of molecules in reverse stationary phase (Ascentis RP-Amide HPLC column) was used. The chromatogram was obtained using LC-MS/MS. Test compounds were prepared at 1.0 μg/mL by adding the stock solution at (1:1) mobile phases A:B + internal standard at 200nM (A: 5% methanol in 10mM ammonium acetate pH 7.4, B: 100% methanol), DMSO concentration must be lower than 2%. […] The retention time (in minutes) of each of the eight standards was plotted against their LogD values. The resulting equation for the calibration curve (y = mx + b) was used to calculate the LogD values for the test compounds.

[5] = Mouse liver microsomal stability; type: in vitro ADME; conditions: for microsomal CLint at 0.5 μM: CD1, mouse, liver microsomes
Method: The metabolic stability of the compounds was evaluated in human (pool of 200 donors, XenoTech) and mouse liver microsomes (CD1 mouse, GIBCO). Test compounds were prepared at a concentration of 0.5 μM and incubated with 0.25 mg/mL liver microsomes at pH 7.4 and 37°C. The reaction was started by addition of NADPH at […]. Samples were taken at 0, 5, 10, 15, 20 and 30 minutes. The reaction was stopped by the addition of acetonitrile:methanol (1:1) containing an internal standard (tolbutamide at 50 nM). Compounds were quantified by liquid chromatography triple quadrupole mass spectrometry (LC-MS/MS). Peak area ratios (analyte/internal standard) were converted to % remaining using the area ratio at time 0 as 100%. Half-life (t1/2 = ln(2)/k) in minutes and intrinsic clearance (Clint = k x 1000/(0.25)) in μL/min/mg were calculated using a non-linear regression from % remaining versus incubation time. From this plot, the slope (k) was determined. The analysis conditions were: analytical column (Gemini C18, […], Phenomenex), electrospray ionization source (ESI) in positive and negative mode, mobile phase A (water + 0.1% formic acid) and B (acetonitrile + 0.1% formic acid), flow rate of 0.7 mL/min.

[6] = Parallel artificial membrane permeability assay (PAMPA); type: in vitro ADME; conditions: PAMPA, S1 Data; read-out: PAMPA Pe
Method: To determine the passive permeability of the compounds, a 96-well plate containing membranes pre-coated with lipids (Corning Gentest # 353015) was used. The solutions of the compounds were prepared by diluting the stock solutions (10mM) in phosphate buffered saline (PBS) pH 6.5 at a final concentration of 10μM. The solutions diluted in PBS pH 6.5 were then added to the donor portion of the plate (300 μl/well), while PBS pH 7.4 (200 μl/well) was added to the acceptor portion. The two portions of the plate were then coupled, and the system was incubated for 5 h at 37°C. At the end of the incubation, samples were collected from the donor and acceptor plates, and then added to plates containing quench solution (10% water and 90% methanol: acetonitrile (50:50) + 50 nM tolbutamide). The final concentrations of compounds in the donor, acceptor, and initial solution (T0) wells were analyzed using LC-MS/MS. The results were used to calculate an effective permeability (Pe) value. The PAMPA assay was performed in triplicate (n = 3).

[7] = 120 h, intracellular amastigotes in PMM, 5 days
[8] = reverse stationary phase HPLC column (Ascentis RP-Amide), S1 Data
[9] = pH 7.4, S1 Data, read-out: MLM CLint
[10] = reverse-phase HPLC retention (Ascentis RP-Amide column), experimental
[11] = mouse liver microsome intrinsic clearance
[12] = pH 7.4, mouse liver microsome intrinsic clearance, read-out: MLM Clint

SMILES | SI: selectivity index (CC50 / IC50) [1] | IC50 [1, 7] | IC50 ([1]; S1 Data) | IC50 [2] | CC50 [3] | eLogD ([4]; experimental) | chromatographic logD [4, 8] | microsomal CLint at 0.5 μM [5, 9] | Papp at 5 h, 10 μM [6] | chromatographic logD [4, 10] | MLM CLint ([5]; S1 Data) | MLM CLint [5, 11] | microsomal CLint at 0.5 μM [5, 12] | L. infantum IC50 ([1]; intracellular amastigotes in PMM, 5 days)
CCCn1c(NC(=O)Cc2ccc(F)cc2)nc2ccccc21 [Compound 2, CCCn1c(nc2c1cccc2)NC(Cc3ccc(cc3)F)=O] | 2 | 15 µM | 14.8 µM | 32 µM | > 64 µM | 4.0 | 3.97 | 2760 µL/min/mg | 6.63 ×10⁻⁶ cm/s |  |  |  |  | 
CCCn1c(NC(=O)Cc2ccc(F)cc2)nc2c(F)cccc21 [Compound 5, Fc1cccc2c1nc(NC(=O)Cc3ccc(F)cc3)n2CCC] | 1 |  | > 64 µM | > 64 µM | > 64 µM |  | 3.57 |  | 16.2 ×10⁻⁶ cm/s | 3.6 | 715 µL/min/mg |  |  | 
CCCn1c(NC(=O)Cc2ccc(F)cc2)nc2cc(F)c(F)cc21 [Compound 6, Fc1cc(n(CCC)c(NC(=O)Cc2ccc(F)cc2)n3)c3cc1F] | 29 | 2.2 µM | 2.19 µM | > 64 µM | > 64 µM |  | 4.04 |  | 13.6 ×10⁻⁶ cm/s |  |  | 399 µL/min/mg |  | 
CCCn1c(NC(=O)Cc2ccc(F)cc2)nc2ccc(C#N)cc21 [Compound 8, n1c(c2n(CCC)c1NC(=O)Cc3ccc(F)cc3)ccc(C#N)c2] | 1 | 46 µM | 45.6 µM | 45.2 µM | > 64 µM | 3.6 | 3.6 | 226 µL/min/mg | 30.7 ×10⁻⁶ cm/s |  |  |  | 225 µL/min/mg | 
CCn1c(NC(=O)Cc2ccc(F)cc2)nc2ccc(F)cc21 [Compound 16, Fc1cc2c(nc(NC(=O)Cc3ccc(F)cc3)n2CC)cc1] |  | 4.4 µM | 4.35 µM | > 64 µM | > 64 µM |  | 3.59 | 538 µL/min/mg | 19.4 ×10⁻⁶ cm/s |  |  |  |  | 
O=C(Cc1ccc(Cl)cc1)Nc1nc2cc(F)ccc2[nH]1 [Compound 18, Fc1ccc([nH]c(NC(Cc2ccc(Cl)cc2)=O)n3)c3c1] |  |  | > 64 µM | > 64 µM | > 64 µM |  | 4.26 | 366 µL/min/mg | 6.04 ×10⁻⁶ cm/s | 3.9 |  |  |  | poor activity
CC(C)(C)n1c(NC(=O)Cc2ccc(F)cc2)nc2cc(F)ccc21 [Compound 19, Fc1cc(nc(NC(=O)Cc2ccc(F)cc2)n3C(C)(C)C)c3cc1] |  | 19 µM | 18.6 µM | > 64 µM | > 64 µM |  | 4.04 | 373 µL/min/mg | 6.35 ×10⁻⁶ cm/s | 4 |  |  |  | 
O=C(Cc1ccc(F)cc1)Nc1nc2ccc(F)cc2n1CC1CC1 [Compound 21, Fc1cc2c(nc(NC(=O)Cc3ccc(F)cc3)n2CC4CC4)cc1] |  | 8.1 µM | 8.06 µM | > 64 µM | 17.4 µM |  | 4.12 | 887 µL/min/mg | 19.4 ×10⁻⁶ cm/s |  |  |  |  | 
O=C(Cc1ccc(F)cc1)Nc1nc2cc(F)ccc2n1CCCN1CCOCC1 [Compound 27, Fc1cc(nc(NC(=O)Cc2ccc(F)cc2)n3CCCN4CCOCC4)c3cc1] |  | 24 µM | 23.5 µM | 45.2 µM | 60.9 µM |  | 3.42 | 335 µL/min/mg | 4.74 ×10⁻⁶ cm/s |  |  |  |  | 
O=C(Cc1ccc(F)cc1)Nc1nc2cc(F)ccc2n1C1CCOCC1 [Compound 28, Fc1cc(nc(NC(=O)Cc2ccc(F)cc2)n3C4CCOCC4)c3cc1] |  | 13 µM | 12.7 µM | > 64 µM | > 64 µM |  | 3.32 | 133 µL/min/mg | 19.6 ×10⁻⁶ cm/s |  |  |  |  | 
Cn1nccc1C(=O)Nc1nc2ccc(C#N)cc2n1C1CCOCC1 [Compound 32, O=C(c1ccnn1C)Nc2nc(ccc(C#N)c3)c3n2C4CCOCC4] | 1 |  | > 64 µM | > 64 µM | > 64 µM |  | 2.32 | < 23 µL/min/mg | 11 ×10⁻⁶ cm/s | 2.3 |  |  | 23 µL/min/mg | 
Cn1ccc(C(=O)Nc2nc3ccc(C#N)cc3n2CC(F)(F)F)n1 [Compound 35, O=C(c1nn(C)cc1)Nc2nc(ccc(C#N)c3)c3n2CC(F)(F)F] | 1 | 26 µM | 25.7 µM | 32 µM | 58.2 µM | 4.2 | 4.15 |  | 13.9 ×10⁻⁶ cm/s |  | 73 µL/min/mg |  |  | 
CC(C)(C)Cn1c(NC(=O)c2ccn(CCO)n2)nc2ccc(C#N)cc21 [Compound 38, O=C(c1nn(CCO)cc1)Nc2nc(ccc(C#N)c3)c3n2CC(C)(C)C] | 1 |  | > 64 µM | > 64 µM | > 64 µM |  | 4.03 | < 23 µL/min/mg | 7.54 ×10⁻⁶ cm/s | 4 |  |  |  | 
CC(C)(C)Cn1c(NC(=O)c2ccccn2)nc2ccc(C#N)cc21 [Compound 40, CC(Cn1c(NC(=O)c2ccccn2)nc(c13)ccc(C#N)c3)(C)C] | 1 | 15 µM | 14.9 µM | 16 µM | 60.9 µM |  | 3.93 | 1030 µL/min/mg | 3.62 ×10⁻⁶ cm/s | 4 |  |  |  | 
CN1CCC(n2c(NC(=O)c3ccnn3C)nc3ccc(C#N)cc32)CC1 [Compound 51, O=C(c1ccnn1C)Nc2nc(ccc(C#N)c3)c3n2C4CCN(C)CC4] | 3 | 20 µM | 20.2 µM | 50.8 µM | > 64 µM |  |  |  | 2.91 ×10⁻⁶ cm/s |  | 72 µL/min/mg |  |  | 
Cn1nccc1C(=O)Nc1nc2cccnc2n1CC(F)(F)F [Compound 53, O=C(c1ccnn1C)Nc2nc(cccn3)c3n2CC(F)(F)F] | 4 | 8.2 µM | 8.18 µM | 32 µM | 6.83 µM |  |  | 118 µL/min/mg | 24.3 ×10⁻⁶ cm/s |  |  | 119 µL/min/mg |  | 
